Literature values as cited in patent US4775679A, “Certain heterocyclic-ethyl-2,3-dihydrobenzofurans useful as anti-inflammatory agents” (Merck & Co., Inc., priority 1987, dated 1988).

Tested on: inflammatory responses elicited by topically applied phorbol myristate acetate (PMA) or archidonic acid (AA)

COc1ccc2c(c1)c(CC(=O)O)c(C)n2C(=O)c1ccc(Cl)cc1 [Indomethacin]
active in this assay (topical mouse ear), previously established: active

C[C@@H]1C[C@H]2[C@@H]3CCC4=CC(=O)C=C[C@]4(C)[C@@]3(F)[C@@H](O)C[C@]2(C)[C@@]1(O)C(=O)CO [dexamethasone]
active in this assay (topical mouse ear), previously established: active
